Test results from US8461083B2, “Herbicidal compounds” (Syngenta Limited, priority 2008, dated 2013).

What was measured:
Type in all cases: in vivo
[1] = test system: Amaranthus retoflexus (AMARE); assay: Pre-emergence herbicidal glasshouse test; conditions: pre-emergence (sprayed after one day cultivation), evaluated after 13 days, 100=total damage to plant, 0=no damage to plant; for PRE Application AMARE, damage to plant: 1000 g/ha
Procedure, shortened: (§1)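 Damage was rated visually 13 days after treatment on a 0–100 scale, 100 meaning total damage. Pot-grown plants received a 1000 g/ha spray in acetone/water (50:50) containing 0.5% Tween 20, either one day after sowing or after eight days of growth.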

Solanum nigrum (SOLNI) [2] = assay: Pre-emergence herbicidal glasshouse test; conditions: pre-emergence (sprayed after one day cultivation), evaluated after 13 days, 100=total damage to plant, 0=no damage to plant; for PRE Application SOLNI, damage to plant: 1000 g/ha
Procedure, shortened: as §1

[3] = test system: Alopecurus myosuroides (ALOMY); assay: Pre-emergence herbicidal glasshouse test; conditions: pre-emergence (sprayed after one day cultivation), evaluated after 13 days, 100=total damage to plant, 0=no damage to plant; for PRE Application ALOMY, damage to plant: 1000 g/ha
Procedure, shortened: as §1

[4] = test system: Echinochloa crus-galli (ECHCG); assay: Pre-emergence herbicidal glasshouse test; conditions: pre-emergence (sprayed after one day cultivation), evaluated after 13 days, 100=total damage to plant, 0=no damage to plant; for PRE Application ECHCG, damage to plant: 1000 g/ha
Procedure, shortened: (§2)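 Sow in standard soil; grow 1 d (pre-emergence) or 8 d (post-emergence) at 24/16 °C, 14 h light, 65% humidity. Spray test compound at 1000 g/ha in aqueous acetone (50:50) with 0.5% Tween 20. Grow on under the same conditions and score injury (0–100) after 13 days.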

Setaria faberi (SETFA) [5] = assay: Pre-emergence herbicidal glasshouse test; conditions: pre-emergence (sprayed after one day cultivation), evaluated after 13 days, 100=total damage to plant, 0=no damage to plant; for PRE Application SETFA, damage to plant: 1000 g/ha
Procedure, shortened: as §1

[6] = test system: Amaranthus retoflexus (AMARE); assay: Post-emergence herbicidal glasshouse test; conditions: post-emergence (sprayed after 8 days cultivation), evaluated after 13 days, 100=total damage to plant, 0=no damage to plant; for POST Application AMARE, damage to plant: 1000 g/ha
Procedure, shortened: as §1

Solanum nigrum (SOLNI) [7] = assay: Post-emergence herbicidal glasshouse test; conditions: post-emergence (sprayed after 8 days cultivation), evaluated after 13 days, 100=total damage to plant, 0=no damage to plant; for POST Application SOLNI, damage to plant: 1000 g/ha
Procedure, shortened: as §1

[8] = test system: Alopecurus myosuroides (ALOMY); assay: Post-emergence herbicidal glasshouse test; conditions: post-emergence (sprayed after 8 days cultivation), evaluated after 13 days, 100=total damage to plant, 0=no damage to plant; for POST Application ALOMY, damage to plant: 1000 g/ha
Procedure, shortened: as §1

[9] = test system: Echinochloa crus-galli (ECHCG); assay: Post-emergence herbicidal glasshouse test; conditions: post-emergence (sprayed after 8 days cultivation), evaluated after 13 days, 100=total damage to plant, 0=no damage to plant; for POST Application ECHCG, damage to plant: 1000 g/ha
Procedure, shortened: as §2

Setaria faberi (SETFA) [10] = assay: Post-emergence herbicidal glasshouse test; conditions: post-emergence (sprayed after 8 days cultivation), evaluated after 13 days, 100=total damage to plant, 0=no damage to plant; for POST Application SETFA, damage to plant: 1000 g/ha
Procedure, shortened: as §1

| SMILES | PRE Application AMARE, damage to plant [1] | PRE Application SOLNI, damage to plant (Solanum nigrum (SOLNI) [2]) | PRE Application ALOMY, damage to plant [3] | PRE Application ECHCG, damage to plant [4] | PRE Application SETFA, damage to plant (Setaria faberi (SETFA) [5]) | POST Application AMARE, damage to plant [6] | POST Application SOLNI, damage to plant (Solanum nigrum (SOLNI) [7]) | POST Application ALOMY, damage to plant [8] | POST Application ECHCG, damage to plant [9] | POST Application SETFA, damage to plant (Setaria faberi (SETFA) [10]) | pest or weed control at 1000 g/ha ([1]; Amaranthus retroflexus, 312 h, read-out: PRE Application AMARE, damage to plant) [%] | pest or weed control at 1000 g/ha (Solanum nigrum (SOLNI) [2]; Solanum nigrum, 312 h, read-out: PRE Application SOLNI, damage to plant) [%] | pest or weed control at 1000 g/ha ([3]; Alopecurus myosuroides, 312 h, read-out: PRE Application ALOMY, damage to plant) [%] | pest or weed control at 1000 g/ha ([4]; Echinochloa crus-galli, 312 h, read-out: PRE Application ECHCG, damage to plant) [%] | pest or weed control at 1000 g/ha (Setaria faberi (SETFA) [5]; Setaria faberi, 312 h, read-out: PRE Application SETFA, damage to plant) [%] | pest or weed control at 1000 g/ha ([6]; Amaranthus retroflexus, 312 h, read-out: POST Application AMARE, damage to plant) [%] | pest or weed control at 1000 g/ha (Solanum nigrum (SOLNI) [7]; Solanum nigrum, 312 h, read-out: POST Application SOLNI, damage to plant) [%] | pest or weed control at 1000 g/ha ([8]; Alopecurus myosuroides, 312 h, read-out: POST Application ALOMY, damage to plant) [%] | pest or weed control at 1000 g/ha ([9]; Echinochloa crus-galli, 312 h, read-out: POST Application ECHCG, damage to plant) [%] | pest or weed control at 1000 g/ha (Setaria faberi (SETFA) [10]; Setaria faberi, 312 h, read-out: POST Application SETFA, damage to plant) [%] |
| --- | --- | --- | --- | --- | --- | --- | --- | --- | --- | --- | --- | --- | --- | --- | --- | --- | --- | --- | --- | --- |
| CCc1ccc2cc(C(=O)C3C(=O)CCCC3=O)c(C(F)(F)F)nc2n1 [Compound 1.3, 2-[7-ethyl-trifluoromethyl-[1,8]-naphthyridine-3-carbony]-cyclohexane-1,3-dione] | 90 | 100 | 80 | 100 | 80 | 100 | 90 | 70 | 80 | 90 | – | – | – | – | – | – | – | – | – | – |
| C=CCn1c(=O)ccc2cc(C(=O)C3C(=O)CCCC3=O)c(C(F)(F)F)nc21 [Compound 2.14, 2-{8-allyl-7-oxo-7,8-dihydro-2-trifluoromethyl-[1,8]-naphthyridine-3-carbony}-cyclohexane-1,3-dione] | 60 | 90 | 40 | 100 | 80 | 70 | 90 | 80 | 90 | 90 | – | – | – | – | – | – | – | – | – | – |
| O=C1CCCC(=O)C1C(=O)c1cc2ccc(=O)n(CCF)c2nc1C(F)(F)F [Compound 2.11, 2-{8-(2-fluoroethyl)-7-oxo-7,8-dihydro-2-trifluoromethyl-[1,8]-naphthyridine-3-carbony}-cyclohexane-1,3-dione] | 60 | 100 | 40 | 100 | 90 | 100 | 100 | 90 | 90 | 90 | – | – | – | – | – | – | – | – | – | – |
| O=C(Cn1c(=O)ccc2cc(C(=O)C3C(=O)CCCC3=O)c(C(F)(F)F)nc21)c1ccccc1 [Compound 2.6, 2-{8-(2-phenyl-2-oxo-ethyl)-7-oxo-7,8-dihydro-2-trifluoromethyl-[1,8]-naphthyridine-3-carbony}-cyclohexane-1,3-dione] | 60 | 90 | 20 | 40 | 10 | 90 | 90 | 40 | 70 | 70 | – | – | – | – | – | – | – | – | – | – |
| CCCOCCn1c(=O)ccc2cc(C(=O)C3C(=O)CCCC3=O)c(C(F)(F)F)nc21 [Compound 2.17] | 40 | 80 | 10 | 80 | 50 | 90 | 90 | 30 | 80 | 90 | – | – | – | – | – | – | – | – | – | – |
| COCCn1c(=O)ccc2cc(C(=O)C3C(=O)CCCC3=O)c(C(F)(F)F)nc21 [Compound 2.22, 2-{8-(2-Methoxyethyl)-7-oxo-7,8-dihydro-2-trifluoromethyl-[1,8]-naphthyridine-3-carbony}-cyclohexane-1,3-dione] | 100 | 100 | 100 | 100 | 100 | 80 | 90 | 80 | 80 | 80 | – | – | – | – | – | – | – | – | – | – |
| O=C1CCCC(=O)C1C(=O)c1cc2ccc(CF)nc2nc1C(F)(F)F [Compound 1.11] | – | – | – | – | – | – | – | – | – | – | 80 | 100 | 60 | 100 | 100 | 100 | 100 | 70 | 90 | 90 |
| O=C1CCCC(=O)C1C(=O)c1cc2ccc(=O)n(CC3CC3)c2nc1C(F)(F)F [Compound 2.9, 2-{8-(cyclopropylmethyl)-7-oxo-7,8-dihydro-2-trifluoromethyl-[1,8]-naphthyridine-3-carbony}-cyclohexane-1,3-dione] | 60 | 90 | 60 | 100 | 90 | 100 | 90 | 90 | 90 | 90 | – | – | – | – | – | – | – | – | – | – |
| CC(C)(F)c1ccc2cc(C(=O)C3C(=O)CCCC3=O)c(C(F)(F)F)nc2n1 [Compound 1.37] | 100 | 100 | 80 | 100 | 100 | 100 | 70 | 80 | 90 | 90 | – | – | – | – | – | – | – | – | – | – |
| CC(F)c1ccc2cc(C(=O)C3C(=O)CCCC3=O)c(C(F)(F)F)nc2n1 (stereo not shown) [Compound 1.35, 2-[7-(1-fluoroethyl)-2-trifluoromethyl-[1,8]-naphthyridine-3-carbony]-cyclohexane-1,3-dione] | 100 | 100 | 70 | 100 | 100 | 100 | 90 | 90 | 90 | 90 | – | – | – | – | – | – | – | – | – | – |
